Our source for the TGI and GI50 values is PubChem BioAssay (NCI).

The structures appear in SMILES notation. Several values for one entry are separate records, joined by “and”; a condition that tells them apart may be missing. Identical values can stand only once.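 All cell lines were grown in 96-well plates and treated with compound for 48 hours. At the GI50, growth is halved. TGI: total growth inhibition.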 Some results are limits rather than exact numbers.

Test in all cases: NCI-60 cell line screen, 48 h
The test system of assay [1] is OVCAR-5 ovarian.
The subject of assay [2] is SK-MEL-28 melanoma.
Assay [3] has as its system HS 578T breast.
Assay [4] relates to M14 melanoma.
Assay [5] concerns SNB-75 CNS.
Assay [6] concerns SK-OV-3 ovarian.
The subject of assay [7] is SW-620 colon.
Assay [8] concerns LOX IMVI melanoma.
Assay [9] deals with RPMI-8226 leukemia.
Assay [10] has as its system MDA-MB-435.
Assay [11] concerns A498 renal.
Assay [12] has as its system HCT-15 colon.
Assay [13] has as its system OVCAR-3 ovarian.
Assay [14] has as its system SNB-19 CNS.
Assay [15] concerns RXF 393 renal.
For assay [16], the system named is ACHN renal.

On to `CCOC(=O)c1cc2c3c(cc(OC)c2[nH]1)N(C(=O)OCC)CC3`, for which the TGI in assay [1], in assay [2], in assay [3], in assay [4], in assay [5] and in [6] was > 100 µM each time. For the same molecule, the TGI in assay [7], in assay [8], in assay [9], in assay [10], in [11] and in assay [12] was > 100 µM throughout. Further, the TGI in assay [13], in assay [14] and in assay [15] was > 100 µM in each case.
Take `CC[C@@]12CCC(=S)N(CCSc3ccccc3)[C@@H]1c1c(n(S(=O)(=O)c3ccc(OC)cc3)c3ccccc13)CC2`: the TGI in assay [1], in [2], in assay [3], in assay [4], in assay [5] and in assay [6] was > 100 µM in each case. Further, the TGI in assay [7], in [8], in assay [9], in assay [10], in assay [11] and in [12] was > 100 µM in each case. The TGI in assay [13], in [14] and in assay [15] was > 100 µM throughout.
As to `CCOC(=O)c1cn(CC)c2ccc3c(c2c1=O)S(=O)(=O)C=C3`, the TGI in [1], in assay [2], in assay [3], in assay [16], in assay [4] and in assay [5] was > 100 µM each time. In addition, the TGI in assay [6], in assay [7], in [8], in assay [9], in assay [10] and in assay [11] was > 100 µM throughout. Also, the TGI in assay [12], in assay [13], in assay [14] and in assay [15] was > 100 µM in each case.
In the case of `COc1ccc2c(c1)CC[C@@H]1C2CC[C@]2(C)C(=C=CP(=O)(O)O)CCC12` (stereo partly specified), the TGI in [1], in [2], in assay [3], in [16], in [4] and in assay [5] was > 100 µM throughout. Moreover, the TGI in assay [6], in [7], in assay [8], in assay [9], in assay [10] and in assay [11] was > 100 µM each time. The TGI in [12], in [13], in assay [14] and in assay [15] was > 100 µM throughout.
As for `CCC(=C/[C@H](C)C/C=C/C(C)=C/[C@@H](C)C(=O)[C@@H](C)[C@H](O)[C@@H](C)CC)/C=C/[C@H]1CC=CC(=O)O1`, the TGI in [1] is 1.91 µM and 11 µM; in assay [2], 2.81 µM and 15.1 µM; in assay [3], 7.02 µM and 2.38 µM; in [16], 1.89 µM and 10.9 µM; in [4], 0.159 µM; in assay [5] it was < 0.0012 µM. In addition, the TGI in assay [6] was 3.28 µM and 18.6 µM; in [7], 2.09 µM and 12.1 µM; in assay [8] it was 1.22 µM; in assay [10], 0.166 µM; in assay [11], < 0.0012 µM; in assay [12], 1.78 µM. Also, the TGI in assay [14] was 2.11 µM and 14 µM; in assay [15], < 0.0012 µM. Also, the GI50 in assay [9] is < 0.0012 µM.
With `CC(NNC(=O)c1ccncc1)c1ccc(Cl)cc1Cl` (stereo unspecified), the TGI in assay [1], in assay [2], in [3], in assay [16], in assay [4] and in assay [5] was > 100 µM throughout. Moreover, the TGI in assay [6], in [7], in assay [8], in assay [9], in assay [10] and in assay [11] was > 100 µM throughout. The TGI in assay [12], in assay [13], in assay [14] and in assay [15] was > 100 µM in each case.
Turning to `COc1ccc(N=Nc2c(N)nn3c(SC)c(C#N)c(N)nc23)cc1`, the TGI came to 34.8 µM in assay [1]; 18.8 µM in [2]; 6.91 µM in assay [3]; 28 µM in assay [16]; 25.1 µM in assay [4]; 40.6 µM in [5]. Also, the TGI in [6] is 38.8 µM; in assay [7], 22.8 µM; in [8] it was 3.12 µM; in assay [9] it was 6.28 µM; in assay [10] it was 27.1 µM; in assay [11], 28.5 µM. Also, the TGI in assay [12] stood at 26.4 µM; in assay [13], 7.1 µM; in [14], 37.6 µM; in assay [15], 19.5 µM.
For `O=C1C=C/C(=C/[C@H]2SSC=C[C@]23C=CC(=O)C3)C1`, the TGI is 28.4 µM in [1]; 42 µM in assay [2]; 93.2 µM in assay [3]; 55.5 µM in [16]; > 54.7 µM in [4]; > 100 µM in assay [5]. In addition, the TGI is > 100 µM in [6]; > 51.5 µM in assay [7]; > 48.7 µM in assay [8]; > 100 µM in [9]; > 53.1 µM in [10]; 38.3 µM in assay [11]. For the same molecule, the TGI in assay [12] was 48.2 µM; in [13] it was 85.6 µM; in assay [14], > 100 µM; in [15], 29.9 µM.
For the molecule `COc1cc(/C=C2/Oc3c(OC)cccc3C2=O)ccc1O`, the TGI in assay [1], in assay [2], in assay [3], in assay [16], in assay [4] and in assay [5] was > 100 µM each time. The TGI in assay [6], in [7], in [8], in assay [9], in assay [10] and in assay [11] was > 100 µM throughout. For the same molecule, the TGI in [12], in [13], in [14] and in assay [15] was > 100 µM throughout.
